Values joined by “and” are separate entries in the source; they are usually repeats but may differ in a detail not shown here. Identical values can stand only once.
How the values were obtained:
hHv1 = hHv1 (Homo sapiens, UniProt Q96D96)
[1] = tested on: non-capacitated human sperm
[2] = tested on: non-capacitated human sperm; remark: listed apart in the source

Chain of hHv1 (Q96D96 whole entry): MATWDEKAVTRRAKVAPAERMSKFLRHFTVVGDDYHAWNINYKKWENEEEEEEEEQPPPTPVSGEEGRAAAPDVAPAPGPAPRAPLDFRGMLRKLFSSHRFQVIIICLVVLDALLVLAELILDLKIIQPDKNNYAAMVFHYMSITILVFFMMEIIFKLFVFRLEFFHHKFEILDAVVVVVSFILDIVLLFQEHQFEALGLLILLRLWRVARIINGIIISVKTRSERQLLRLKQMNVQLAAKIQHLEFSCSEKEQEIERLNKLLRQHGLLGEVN

O=C(O)CN(CCN(CC(=O)O)CC(=O)O)CC(=O)O [EDTA]
hHv1 in HEK293T cells V1/2 after application (hHv1): −29 ± 3 mV
Sperm H+ current V1/2 after application (hHv1 in human sperm): 4 mV and 4 ± 1 mV
Sperm H+ current V1/2 shift (hHv1 in human sperm): 11 mV

CC(C)[C@H]1c2ccc(F)cc2CC[C@@]1(CCN(C)CCCc1nc2ccccc2[nH]1)OC(=O)C1CC1 [NNC]
inhibition of Alb-potentiated [Ca2+]i increase [1]: inhibited

bovine serum albumin [BSA]
increase of progesterone-induced peak [Ca2+]i [1]: 2.2 fold
change of pHi [2]: increased the speed of cytoplasmic alkalization
